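Briefly, cells in 96-well plates were exposed to five compound concentrations for 48 h, and endpoints were estimated by linear interpolation. At the GI50, growth is halved. TGI denotes the concentration required for complete inhibition of growth.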

Test in all cases: DTP human tumour cell line panel, 48 h
The test system of assay [1] is 786-0 renal.
Assay [2] relates to SK-MEL-28 melanoma.
Assay [3] relates to HCT-116 colon.
Assay [4] deals with SN12C renal.
Assay [5] concerns SK-MEL-5 melanoma.
The test system of assay [6] is UACC-62 melanoma.
Assay [7] relates to OVCAR-4 ovarian.

The TGI is the concentration giving total growth inhibition. A low value points to more potent growth arrest. As to `CS(=O)c1ccc(COP(N)(=O)N(CCCl)CCCl)cc1` (stereo not given), the TGI in assay [1], in assay [2], in assay [3], in assay [4], in assay [5] and in assay [6] was more than 100 µM in each case. In assay [7], this compound returned a TGI of more than 100 µM.
Consider `Cc1c2cc[nH]c(=O)c2cc2c(=O)c3cnccc3[nH]c12`, for which the TGI in assay [1], in assay [2], in assay [3], in assay [4], in assay [5] and in assay [6] was more than 100 µM throughout. Besides, in assay [7], the total growth inhibition concentration (TGI) is more than 100 µM.
In the case of `O=C(O)c1cc2c(cn1)[nH]c1ccccc12`, the TGI in assay [1], in assay [2], in assay [3], in assay [4], in assay [5] and in assay [6] was more than 100 µM each time. This compound returned a total growth inhibition concentration (TGI) in assay [7] of more than 100 µM.
With `ON=C1CCC(c2ccccc2)CC1` (stereo not given), the total growth inhibition concentration (TGI) in assay [1], in assay [2], in assay [3], in assay [4], in assay [5] and in assay [6] was more than 100 µM throughout. The TGI in assay [7] was more than 100 µM.
In the case of `O=c1cc2ccccc2nn1-c1ccccc1Cl`, the concentration for total growth inhibition (TGI) in assay [1], in assay [2], in assay [3], in assay [4], in assay [5] and in assay [6] was more than 100 µM in each case. The compound also showed a concentration for total growth inhibition (TGI) in assay [7] of more than 100 µM.
In the case of `CCOC(=O)C(C)c1cc(C2(C)OCCO2)c(C)o1` (stereo not given), the concentration for total growth inhibition (TGI) in assay [1], in assay [3], in assay [4], in assay [5], in assay [6] and in assay [7] was more than 100 µM throughout.
Consider `O=C(c1ccccc1)c1c(C(=O)c2ccccc2)c(-c2ccccc2)c2c(-c3ccccc3)sc(-c3ccccc3)c2c1-c1ccccc1`, for which the concentration for total growth inhibition (TGI) in assay [1], in assay [2], in assay [3], in assay [4], in assay [5] and in assay [6] was more than 100 µM throughout. Moreover, in assay [7], the TGI was more than 100 µM.
Regarding `COC(=O)N/N=C/c1oc(-c2cccc([N+](=O)[O-])c2)c(-c2cccc([N+](=O)[O-])c2)c1[N+](=O)[O-]`, the TGI in assay [1], in assay [2], in assay [3], in assay [4], in assay [5] and in assay [6] was more than 100 µM throughout. The concentration for total growth inhibition (TGI) in assay [7] is more than 100 µM.
For `O=[N+]([O-])C1C2C=CC(C2)[C@H]1c1ccccc1Cl` (stereo not given in full), the TGI in assay [1] was more than 100 µM; in assay [2] it was more than 100 µM; in assay [3], more than 100 µM; in assay [4], more than 100 µM; in assay [5] it was more than 100 µM; in assay [6] it was more than 31.6 µM. This compound also showed a TGI in assay [7] of more than 10 µM.
On to `N#CC12C3C4CC5C6C4C1C6C(O)(C53)N2Cc1ccccc1` (stereo not given), for which the concentration for total growth inhibition (TGI) in assay [1], in assay [2], in assay [3], in assay [4], in assay [5] and in assay [6] was more than 100 µM each time. Moreover, in assay [7], the TGI was more than 100 µM.
As a reminder, the GI50 is the concentration at which growth is held to half of that of the control. On to `N.N.NC(CS)C(=O)[O-].NC(CS)C(=O)[O-].[Pt+4]` (stereo not given), for which the GI50 in assay [1], in assay [2], in assay [3], in assay [4], in assay [5] and in assay [6] was more than 50 µM in each case. For the same compound, the GI50 in assay [7] was more than 50 µM. Further, the TGI in assay [1], in assay [2], in assay [3], in assay [4], in assay [5] and in assay [6] was more than 50 µM in each case. Besides, the total growth inhibition concentration (TGI) in assay [7] was more than 50 µM.
For `CC(=O)/C=C/c1ccc(C2CC(C)=Nc3c(ccc4c3C(=O)c3ccccc3C4=O)N2)cc1` (stereo not given), the TGI in assay [1], in assay [2], in assay [3], in assay [4], in assay [5] and in assay [6] was more than 100 µM each time. In addition, in assay [7], the TGI is more than 100 µM.
On to `O=S1(=O)C[C@@H](O)[C@H](O)CS1`, for which the total growth inhibition concentration (TGI) in assay [1], in assay [2], in assay [3], in assay [4], in assay [5] and in assay [6] was more than 100 µM in each case. In assay [7], this compound gave a TGI of more than 100 µM.
Regarding `Nc1c(-c2nc3ccccc3[nH]2)sc(=S)n1-c1ccccc1`, the total growth inhibition concentration (TGI) in assay [1] was more than 100 µM; in assay [2], more than 100 µM; in assay [3], more than 100 µM; in assay [4], more than 100 µM; in assay [5], more than 100 µM; in assay [6], 70 µM. The concentration for total growth inhibition (TGI) in assay [7] is more than 100 µM.
Regarding `CCOC(=O)C1C(=O)c2ccccc2CN1Cc1ccccc1` (stereo not given), the concentration for total growth inhibition (TGI) in assay [1], in assay [2], in assay [3], in assay [4], in assay [5] and in assay [6] was more than 100 µM each time. For the same compound, the TGI in assay [7] was more than 100 µM.
As for `CC(=O)OCC1OC(n2c(=O)n(-c3ccccc3)c(=O)c3ccccc32)C(OC(C)=O)C(OC(C)=O)C1OC(C)=O` (stereo not given), the total growth inhibition concentration (TGI) in assay [1], in assay [2], in assay [3], in assay [4], in assay [5] and in assay [6] was more than 100 µM in each case. Moreover, the TGI in assay [7] was more than 100 µM.
On to `CCOP(=O)(OCC)/C(C#N)=C/c1ccco1`, for which the concentration for total growth inhibition (TGI) in assay [1], in assay [2], in assay [3], in assay [4], in assay [5] and in assay [6] was more than 100 µM each time. The total growth inhibition concentration (TGI) in assay [7] was more than 100 µM.
For the compound `COC(=O)c1c(CC#N)cccc1CC#N`, the TGI in assay [1], in assay [3], in assay [4], in assay [6] and in assay [7] was more than 100 µM throughout.

(Values after PubChem BioAssay (NCI).)
